Source: ChEMBL document CHEMBL6182927, “Heparan Sulfate-Based Neoproteoglycan for Targeted Lysosomal Degradation of Amyloid-β” (J Med Chem, 2025)
Active and inactive are the calls of the source. No cut-off for these calls is given here.

Experiments:
MDA-MB-468 [1] = assay: Protection against amyloid beta-induced cytotoxicity in human MDA-MB-468 cells at 0.5 uM by MTT assay; assay type: functional, cell-based
MDA-MB-468 [2] = assay: Induction of amyloid beta (1 to 42) degradation in lysosome of human MDA-MB-468 cells assessed as decrease in fluorescence signal at 1 uM incubated for 48 to 72 hrs by FITC based flow cytometry analysis; assay type: subcellular; conditions: time 48-72 hrs
[3] = biological target: T1, Amyloid-beta precursor protein (Homo sapiens, UniProt P05067); assay: Binding affinity to amyloid beta (1 to 42) (unknown origin) assessed as binding constant K(off) by SPR analysis
T1 sequence (P05067 whole entry): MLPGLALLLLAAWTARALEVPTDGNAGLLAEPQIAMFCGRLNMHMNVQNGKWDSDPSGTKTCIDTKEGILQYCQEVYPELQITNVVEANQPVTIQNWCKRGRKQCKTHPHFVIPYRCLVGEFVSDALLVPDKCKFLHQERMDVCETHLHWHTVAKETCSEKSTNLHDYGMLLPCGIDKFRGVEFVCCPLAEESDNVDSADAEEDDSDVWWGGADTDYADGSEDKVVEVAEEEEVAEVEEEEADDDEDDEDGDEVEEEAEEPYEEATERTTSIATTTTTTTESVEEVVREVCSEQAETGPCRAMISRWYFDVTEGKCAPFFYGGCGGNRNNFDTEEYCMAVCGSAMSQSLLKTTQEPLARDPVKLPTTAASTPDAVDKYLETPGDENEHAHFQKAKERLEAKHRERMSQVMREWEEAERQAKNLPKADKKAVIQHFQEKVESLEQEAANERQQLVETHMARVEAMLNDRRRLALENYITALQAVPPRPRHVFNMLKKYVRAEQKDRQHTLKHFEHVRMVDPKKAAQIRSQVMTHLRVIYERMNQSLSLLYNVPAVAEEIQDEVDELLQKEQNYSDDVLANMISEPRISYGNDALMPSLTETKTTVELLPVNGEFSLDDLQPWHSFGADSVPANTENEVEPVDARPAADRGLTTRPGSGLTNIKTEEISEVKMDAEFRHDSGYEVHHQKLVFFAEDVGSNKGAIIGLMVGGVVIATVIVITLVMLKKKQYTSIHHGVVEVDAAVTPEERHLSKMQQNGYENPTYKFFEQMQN

[4] = biological target: T1, Amyloid-beta precursor protein; assay: Binding affinity to amyloid beta (1 to 42) (unknown origin) assessed as binding constant K(on) by SPR analysis
[5] = biological target: T1, Amyloid-beta precursor protein; assay: Binding affinity to amyloid beta (1 to 42) (unknown origin) assessed as dissociation constant by SPR analysis

Activity (MDA-MB-468 [2]) | K [3] | K [4] | Kd [5] [nM] | Structure (SMILES) | Activity (MDA-MB-468 [1])
Active |  |  |  | CC(C)CCC[C@@H](C)[C@H]1CC[C@H]2[C@@H]3CC=C4C[C@@H](OCCC(=O)NCCOCCOCCNC(=O)CCC(=O)N5Cc6ccccc6-c6c(nnn6CCC[C@H](NC(=O)[C@H](CCCCNC(=O)CCn6nnc7c6-c6ccccc6CN(C(=O)CCC(=O)NCCCO[C@@H]6O[C@@H](C(=O)O)[C@@H](O[C@H]8O[C@H](COS(=O)(=O)O)[C@@H](O[C@@H]9O[C@@H](C(=O)O)[C@@H](O[C@H]%10O[C@H](COS(=O)(=O)O)[C@@H](O[C@@H]%11O[C@@H](C(=O)O)[C@@H](O[C@H]%12O[C@H](COS(=O)(=O)O)[C@@H](O)[C@H](O)[C@H]%12NS(=O)(=O)O)[C@H](O)[C@H]%11OS(=O)(=O)O)[C@H](O)[C@H]%10NS(=O)(=O)O)[C@H](O)[C@H]9OS(=O)(=O)O)[C@H](O)[C@H]8NS(=O)(=O)O)[C@H](O)[C@H]6OS(=O)(=O)O)c6ccccc6-7)NC(=O)[C@H](CCCCNC(=O)CCn6nnc7c6-c6ccccc6CN(C(=O)CCC(=O)NCCCO[C@@H]6O[C@@H](C(=O)O)[C@@H](O[C@H]8O[C@H](COS(=O)(=O)O)[C@@H](O[C@@H]9O[C@@H](C(=O)O)[C@@H](O[C@H]%10O[C@H](COS(=O)(=O)O)[C@@H](O[C@@H]%11O[C@@H](C(=O)O)[C@@H](O[C@H]%12O[C@H](COS(=O)(=O)O)[C@@H](O)[C@H](O)[C@H]%12NS(=O)(=O)O)[C@H](O)[C@H]%11OS(=O)(=O)O)[C@H](O)[C@H]%10NS(=O)(=O)O)[C@H](O)[C@H]9OS(=O)(=O)O)[C@H](O)[C@H]8NS(=O)(=O)O)[C@H](O)[C@H]6OS(=O)(=O)O)c6ccccc6-7)NC(=O)[C@H](CCCCNC(=O)CCn6nnc7c6-c6ccccc6CN(C(=O)CCC(=O)NCCCO[C@@H]6O[C@@H](C(=O)O)[C@@H](O[C@H]8O[C@H](COS(=O)(=O)O)[C@@H](O[C@@H]9O[C@@H](C(=O)O)[C@@H](O[C@H]%10O[C@H](COS(=O)(=O)O)[C@@H](O[C@@H]%11O[C@@H](C(=O)O)[C@@H](O[C@H]%12O[C@H](COS(=O)(=O)O)[C@@H](O)[C@H](O)[C@H]%12NS(=O)(=O)O)[C@H](O)[C@H]%11OS(=O)(=O)O)[C@H](O)[C@H]%10NS(=O)(=O)O)[C@H](O)[C@H]9OS(=O)(=O)O)[C@H](O)[C@H]8NS(=O)(=O)O)[C@H](O)[C@H]6OS(=O)(=O)O)c6ccccc6-7)NC(=O)[C@H](CCCCNC(=O)CCn6nnc7c6-c6ccccc6CN(C(=O)CCC(=O)NCCCO[C@@H]6O[C@@H](C(=O)O)[C@@H](O[C@H]8O[C@H](COS(=O)(=O)O)[C@@H](O[C@@H]9O[C@@H](C(=O)O)[C@@H](O[C@H]%10O[C@H](COS(=O)(=O)O)[C@@H](O[C@@H]%11O[C@@H](C(=O)O)[C@@H](O[C@H]%12O[C@H](COS(=O)(=O)O)[C@@H](O)[C@H](O)[C@H]%12NS(=O)(=O)O)[C@H](O)[C@H]%11OS(=O)(=O)O)[C@H](O)[C@H]%10NS(=O)(=O)O)[C@H](O)[C@H]9OS(=O)(=O)O)[C@H](O)[C@H]8NS(=O)(=O)O)[C@H](O)[C@H]6OS(=O)(=O)O)c6ccccc6-7)NC(=O)[C@H](CCCCNC(=O)CCn6nnc7c6-c6ccccc6CN(C(=O)CCC(=O)NCCCO[C@@H]6O[C@@H](C(=O)O)[C@@H](O[C@H]8O[C@H](COS(=O)(=O)O)[C@@H](O[C@@H]9O[C@@H](C(=O)O)[C@@H](O[C@H]%10O[C@H](COS(=O)(=O)O)[C@@H](O[C@@H]%11O[C@@H](C(=O)O)[C@@H](O[C@H]%12O[C@H](COS(=O)(=O)O)[C@@H](O)[C@H](O)[C@H]%12NS(=O)(=O)O)[C@H](O)[C@H]%11OS(=O)(=O)O)[C@H](O)[C@H]%10NS(=O)(=O)O)[C@H](O)[C@H]9OS(=O)(=O)O)[C@H](O)[C@H]8NS(=O)(=O)O)[C@H](O)[C@H]6OS(=O)(=O)O)c6ccccc6-7)NC(=O)[C@H](C)NC(=O)CCCCC[N+]6=C(/C=C/C=C/C=C7\N(C)c8ccccc8C7(C)C)C(C)(C)c7ccccc76)C(N)=O)-c6ccccc65)CC[C@]4(C)[C@H]3CC[C@]12C | Active
 | 2.23 10^-2/s | 2.47 10^5/Ms | 90.3 | NCCCO[C@@H]1O[C@@H](C(=O)O)[C@@H](O[C@H]2O[C@H](COS(=O)(=O)O)[C@@H](O[C@@H]3O[C@@H](C(=O)O)[C@@H](O[C@H]4O[C@H](COS(=O)(=O)O)[C@@H](O[C@@H]5O[C@@H](C(=O)O)[C@@H](O[C@H]6O[C@H](COS(=O)(=O)O)[C@@H](O)[C@H](O)[C@H]6NS(=O)(=O)O)[C@H](O)[C@H]5OS(=O)(=O)O)[C@H](O)[C@H]4NS(=O)(=O)O)[C@H](O)[C@H]3OS(=O)(=O)O)[C@H](O)[C@H]2NS(=O)(=O)O)[C@H](O)[C@H]1OS(=O)(=O)O | 
 | 2.21 10^-2/s | 2.45 10^5/Ms | 90.2 | NCCOCCO[C@@H]1O[C@@H](COS(=O)(=O)O)[C@@H](O[C@@H]2O[C@@H](COS(=O)(=O)O)[C@@H](O[C@@H]3O[C@@H](COS(=O)(=O)O)[C@@H](O[C@@H]4O[C@@H](COS(=O)(=O)O)[C@@H](OS(=O)(=O)O)[C@H](O)[C@H]4OS(=O)(=O)O)[C@H](O)[C@H]3OS(=O)(=O)O)[C@H](O)[C@H]2OS(=O)(=O)O)[C@H](O)[C@H]1OS(=O)(=O)O | 
